According to patent publication US20140288043A1, “PYRAZOLOPYRIDINE COMPOUNDS” (Genentech, Inc., priority 2013, published 2014):

biological target: LRRK2 (Homo sapiens, UniProt Q5S007); assay: LRRK2 protein kinase assay ([γ-33P] ATP, peptide substrate), KI values of Table 1; assay type: biochemical; conditions: LRRK2 affinity values
Text: All LRRK2 protein kinases were of human origin and were sourced from Invitrogen Corporation (Carlsbad, Calif. 92008 USA) unless otherwise indicated. The active mutant used was recombinant human, catalytic domain (amino acids 970-2527) containing a G2019S mutation, GST-tagged, expressed in insect cells (Invitrogen Cat#PV4881). The wild type used was recombinant human, catalytic domain (amino acids 970-2527) GST-tagged, expressed in insect cells (Invitrogen Cat#PV4873). The kinase dead mutant used was recombinant human, catalytic domain (amino acids 970-2527) containing a D1994A mutation, GST-tagged, expressed in insect cells (Invitrogen Cat#PM4041AE). No special measures were taken to activate any of the kinases.
All assays were carried out at room temperature (˜21° C.) and were linear with respect to time and enzyme concentration under the conditions used. Assays were performed for 180 min in a 96 well format. LRRK2 was present at a concentration of approximately 5 nM. The enzyme was diluted and assayed in 50 mM Tris-HCl pH7.5, 0.1 mM EGTA, 1 mM DTT and 10 mM MgCl2. The concentration of magnesium chloride in the assay was 10 mM. The [γ-33P] ATP (0.4 μCi/well) was used at 134 uM for G2019S mutant and at 57 μM for the wild type kinase in order to be at Km. The peptide substrate in the assay was […] at 100 μM.
The assays were initiated with Mg/ATP and stopped by the addition of 25 μl/well 50% orthophosphoric acid. Reactions were harvested onto Whatman P81 Unifilter Plates (Fisher Scientific. Loughborough, LE115RG, UK. Cat# FDU-105-020U) using a Tomtec harvester. (Tomtec Hamden, Conn. 06514. USA) Plates were counted using a Perkin Elmer Top Count NX7. (Perkin Elmer, Shelton Conn. 06484-4794 USA)
IC50 values of inhibitors were determined after carrying out assays at 10 different concentrations of each compound in duplicate.

Chain of LRRK2 (Q5S007 whole entry G2019S, form open, the tested form may be a part): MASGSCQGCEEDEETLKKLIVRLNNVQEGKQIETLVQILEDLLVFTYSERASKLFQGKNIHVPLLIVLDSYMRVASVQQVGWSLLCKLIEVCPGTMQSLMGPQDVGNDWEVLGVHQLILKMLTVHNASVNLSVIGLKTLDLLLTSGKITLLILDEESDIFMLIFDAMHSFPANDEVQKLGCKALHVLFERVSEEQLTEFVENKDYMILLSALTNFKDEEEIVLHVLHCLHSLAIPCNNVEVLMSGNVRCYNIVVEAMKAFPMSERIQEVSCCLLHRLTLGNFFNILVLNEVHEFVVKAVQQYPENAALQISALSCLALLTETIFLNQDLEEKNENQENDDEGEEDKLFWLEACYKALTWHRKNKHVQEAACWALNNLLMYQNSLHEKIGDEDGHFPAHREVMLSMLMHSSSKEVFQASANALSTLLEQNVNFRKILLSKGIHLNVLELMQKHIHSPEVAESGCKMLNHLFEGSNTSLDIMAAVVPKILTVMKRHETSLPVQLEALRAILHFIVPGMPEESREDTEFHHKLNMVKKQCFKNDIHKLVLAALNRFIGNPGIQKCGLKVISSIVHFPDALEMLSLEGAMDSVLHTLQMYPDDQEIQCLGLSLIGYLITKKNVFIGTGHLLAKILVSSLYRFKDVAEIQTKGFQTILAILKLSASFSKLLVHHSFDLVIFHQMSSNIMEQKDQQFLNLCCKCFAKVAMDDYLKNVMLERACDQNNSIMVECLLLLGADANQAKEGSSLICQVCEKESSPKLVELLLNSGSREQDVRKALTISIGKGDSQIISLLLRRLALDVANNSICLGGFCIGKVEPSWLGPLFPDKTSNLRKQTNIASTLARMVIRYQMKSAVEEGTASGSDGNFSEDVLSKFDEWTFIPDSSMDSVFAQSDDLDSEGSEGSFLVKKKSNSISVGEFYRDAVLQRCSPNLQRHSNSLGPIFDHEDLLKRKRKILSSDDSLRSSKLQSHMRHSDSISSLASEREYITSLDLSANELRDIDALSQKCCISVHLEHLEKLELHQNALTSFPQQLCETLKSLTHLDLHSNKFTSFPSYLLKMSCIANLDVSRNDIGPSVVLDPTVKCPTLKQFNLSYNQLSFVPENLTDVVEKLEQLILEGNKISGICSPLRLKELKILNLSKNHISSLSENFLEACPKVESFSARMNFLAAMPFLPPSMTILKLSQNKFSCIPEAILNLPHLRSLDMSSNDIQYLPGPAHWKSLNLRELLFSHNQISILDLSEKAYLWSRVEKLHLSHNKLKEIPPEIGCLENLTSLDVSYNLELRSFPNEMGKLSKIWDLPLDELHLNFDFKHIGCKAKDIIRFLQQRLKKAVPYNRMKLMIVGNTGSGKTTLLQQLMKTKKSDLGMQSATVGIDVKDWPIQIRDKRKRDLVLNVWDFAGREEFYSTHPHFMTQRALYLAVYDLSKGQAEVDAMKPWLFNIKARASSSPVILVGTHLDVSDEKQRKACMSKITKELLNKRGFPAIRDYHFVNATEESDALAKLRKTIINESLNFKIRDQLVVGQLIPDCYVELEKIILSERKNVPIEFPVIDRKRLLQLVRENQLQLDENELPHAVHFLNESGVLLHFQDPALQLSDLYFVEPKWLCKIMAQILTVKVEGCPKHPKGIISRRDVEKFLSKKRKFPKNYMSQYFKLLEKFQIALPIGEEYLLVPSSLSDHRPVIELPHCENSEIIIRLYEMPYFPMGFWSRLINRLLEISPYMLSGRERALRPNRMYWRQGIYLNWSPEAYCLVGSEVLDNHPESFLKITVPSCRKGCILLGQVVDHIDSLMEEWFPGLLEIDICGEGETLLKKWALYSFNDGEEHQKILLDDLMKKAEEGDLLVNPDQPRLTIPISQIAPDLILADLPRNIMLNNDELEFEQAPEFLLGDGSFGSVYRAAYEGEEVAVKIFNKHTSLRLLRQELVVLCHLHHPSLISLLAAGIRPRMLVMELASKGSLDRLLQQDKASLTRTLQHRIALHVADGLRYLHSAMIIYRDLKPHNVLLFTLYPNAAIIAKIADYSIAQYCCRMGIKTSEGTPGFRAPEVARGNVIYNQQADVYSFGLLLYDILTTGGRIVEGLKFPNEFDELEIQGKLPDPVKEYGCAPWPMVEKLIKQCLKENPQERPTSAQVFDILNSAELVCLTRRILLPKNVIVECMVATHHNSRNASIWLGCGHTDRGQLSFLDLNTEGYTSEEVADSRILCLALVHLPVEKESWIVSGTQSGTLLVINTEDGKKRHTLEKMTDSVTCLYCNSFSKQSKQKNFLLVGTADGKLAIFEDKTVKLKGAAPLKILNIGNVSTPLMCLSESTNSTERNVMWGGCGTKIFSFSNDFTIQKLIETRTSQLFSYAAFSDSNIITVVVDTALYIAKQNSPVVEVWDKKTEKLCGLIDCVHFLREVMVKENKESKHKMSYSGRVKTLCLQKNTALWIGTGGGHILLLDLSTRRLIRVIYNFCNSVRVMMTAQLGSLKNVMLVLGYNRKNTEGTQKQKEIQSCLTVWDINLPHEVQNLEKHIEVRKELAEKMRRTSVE

Row | Compound | Ki [nM]
1 | Cc1cc2[nH]nc(-c3cc(C(F)(F)F)ccn3)c2c(NC2CCOCC2)n1 [Compound 51, 6-methyl-N-(tetrahydro-2H-pyran-4-yl)-3-(4-(trifluoromethyl)pyridin-2-yl)-1H-pyrazolo[4,3-c]pyridin-4-amine] | 39.9
2 | CC(C)Nc1nccc2[nH]nc(-c3cc(C4CCCO4)ccn3)c12 (centres unmarked) [Compound 53, N-isopropyl-3-(4-(tetrahydrofuran-2-yl)pyridin-2-yl)-1H-pyrazolo[4,3-c]pyridin-4-amine] | 4.4
3 | Cc1cc2[nH]nc(-c3cc(C(F)(F)F)ncn3)c2c(NC2CCOCC2)n1 [Compound 57, 6-methyl-N-(tetrahydro-2H-pyran-4-yl)-3-(6-(trifluoromethyl)pyrimidin-4-yl)-1H-pyrazolo[4,3-c]pyridin-4-amine] | 66.3

The next lines start with the values.

Row | Ki [nM] | Compound
4 | 66.4 | CCNc1nccc2[nH]nc(-c3ccccn3)c12 [Compound 16, N-ethyl-3-(pyridin-2-yl)-1H-pyrazolo[4,3-c]pyridin-4-amine]
5 | 9.4 | CCNc1nccc2[nH]nc(-c3cc(C(F)(F)F)ccn3)c12 [Compound 21, N-ethyl-3-(4-(trifluoromethyl)pyridin-2-yl)-1H-pyrazolo[4,3-c]pyridin-4-amine]
